Measured values reported in patent US4673674A, “Diazepinoindoles useful for treating depression, schizophrenia, social withdrawal or anxiety and pharmaceutical compositions containing them” (Sandoz Pharmaceuticals Corp., priority 1984, dated 1987).
Like-named read-outs stand apart in the source and are kept apart here.

Legend:
[1] = target: T1, 5-HT2 receptors in the rat frontal cortex (Rattus norvegicus, UniProt P14842); assay: inhibition of specific 3H-spiperone binding to 5-HT2 receptors in rat frontal cortex; details: rat frontal cortex membranes, 1 nM 3H-spiperone, 1 h at 37° C., pH 7.7
T1 construct: Fresh frontal cortex tissue from rat brain is homogenized; from tissue; host or cells: rat frontal cortex membranes
T1 sequence (P14842 whole entry): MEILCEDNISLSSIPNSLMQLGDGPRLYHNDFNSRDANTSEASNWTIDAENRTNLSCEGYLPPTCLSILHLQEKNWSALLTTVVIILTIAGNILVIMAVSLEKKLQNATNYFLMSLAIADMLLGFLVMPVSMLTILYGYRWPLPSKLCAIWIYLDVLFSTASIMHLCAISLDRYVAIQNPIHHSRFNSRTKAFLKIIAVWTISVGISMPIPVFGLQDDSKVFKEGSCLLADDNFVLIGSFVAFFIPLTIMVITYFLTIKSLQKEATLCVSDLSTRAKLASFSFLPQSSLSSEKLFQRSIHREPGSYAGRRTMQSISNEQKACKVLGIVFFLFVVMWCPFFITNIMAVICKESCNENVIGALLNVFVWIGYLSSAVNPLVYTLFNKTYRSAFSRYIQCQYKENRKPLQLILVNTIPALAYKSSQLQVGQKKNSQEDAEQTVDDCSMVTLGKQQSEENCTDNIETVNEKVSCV
Description: This test has been carried out as follows:
Fresh frontal cortex tissue from rat brain is homogenized in a 20 fold volume of Tris-HCl buffer (50 mM, pH 7.7, containing 4 mM CaCl2, 10 μM pargyline, and 0.1% ascorbic acid), and centrifuged. The pellets are resuspended in a 25 fold volume of the same buffer, incubated for 15 min at 37° C., and recentrifuged. The pellets are frozen at -20° C. and resuspended in a 360 fold volume of the same buffer as above before use for the binding experiment. The composition of the assay mixtures (total volume =2 ml) is as follows: 50 mM Tris-HCl pH 7,7, 4 mM CaCl2, 10 μM pargyline, 0.1% ascorbic acid, membranes corresponding to 5 mg of original tissue weight, and 1 nM ^3 H-spiperone. The assays for the determination of nonspecific binding additionally contain cinanserin in a concentration of 1 μM. […] After incubation for 1 hour at 37° C., the assay mixtures are rapidly filtered through Whatman GF/B filters and washed twice with 5 ml of ice cold incubation buffer.

paradoxical sleep (PS) = assay: reduction of paradoxical sleep (PS) in the 48 h sleep EEG in rats; format: in vivo; details: 3.2-32 mg/kg p.o.
Source text: Kleinlogel "EEG in Drug Research" ed. by Hermann, Gustav Fischer Verlag, Stuttgart, N.Y., 75-88 (1982)].

locomotion in mice = assay: inhibition of locomotion in mice (neuroleptic activity); format: in vivo, mice (male, OF-1); details: Mus musculus, po, read-out: EDmin (inhibition of locomotion)
Description: In this test groups of 3 male mice (18-24 g, OF-1, Sandoz Basle) received 3.2, 10, 32, 100 and 320 mg p.o. of the test drug.

[2] = target: T2, 3H-spiperone binding sites in the brain (calf brain striatal tissue) (Bos taurus, UniProt P20288); assay: inhibition of specific 3H-spiperone binding in calf brain striatal tissue; details: calf brain striatal membranes, 0.1 nM 3H-spiperone, 5×10^-7 M cinanserin, 40 minutes at room temperature
T2 construct: fresh calf brain striatal tissue was homogenized; from tissue; host or cells: calf brain striatal membranes
T2 sequence (P20288 whole entry): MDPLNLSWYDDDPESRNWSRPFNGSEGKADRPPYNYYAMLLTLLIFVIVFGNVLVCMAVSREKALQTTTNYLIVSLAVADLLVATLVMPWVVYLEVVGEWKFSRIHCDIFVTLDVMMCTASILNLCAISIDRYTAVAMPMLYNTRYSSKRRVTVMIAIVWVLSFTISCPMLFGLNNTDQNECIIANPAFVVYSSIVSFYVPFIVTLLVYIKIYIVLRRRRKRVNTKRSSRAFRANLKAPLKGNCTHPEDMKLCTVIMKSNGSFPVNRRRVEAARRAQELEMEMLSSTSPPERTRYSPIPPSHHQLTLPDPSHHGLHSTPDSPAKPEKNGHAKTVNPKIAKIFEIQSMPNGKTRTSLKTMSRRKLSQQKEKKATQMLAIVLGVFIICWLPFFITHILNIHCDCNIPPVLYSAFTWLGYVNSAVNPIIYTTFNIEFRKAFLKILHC

SMILES: CN(C)CCC=C1c2ccccc2CCc2ccccc21 [amitriptyline, reference compound]
- IC50 [1]: 15 nM
- reduction of paradoxical sleep (PS) (paradoxical sleep (PS)): reduce further the paradoxical sleep (PS) without rebound

SMILES: CN1CCc2c(-c3ccc(Cl)cc3)c3ccccc3n2CC1 [Example 5j]
- minimal effective dose (locomotion in mice; male mice, 1 hour after administration): 3.2 mg/kg
- IC50 [2]: 137 nM

SMILES: C=CCN1CCc2c(-c3ccccc3)c3ccccc3n2CC1 [Example 3, 3-Allyl-2,3,4,5-tetrahydro-11-phenyl-1H-[1,4]diazepino-[1,7-a]indole]
- IC50 [1]: 1 to 10 nM

SMILES: CSc1ccc2c(c1)N(CCC1CCCCN1C)c1ccccc1S2 (stereo not drawn) [thioridazine, reference compound]
- minimal effective dose (locomotion in mice; 1 h): 10 to 32 mg/kg

SMILES: c1ccc(-c2c3n(c4ccccc24)CCNCC3)cc1 [Example 2, 2,3,4,5,-Tetrahydro-11-phenyl-1H-[1,4]diazepino[1,7-a]indole]
- IC50 [1]: 1 to 10 nM

SMILES: c1ccc(-c2c3n(c4ccccc24)CCN(CC2CC2)CC3)cc1 [Example 4, 3-Cyclopropylmethyl-2,3,4,5-tetrahydro-11-phenyl-1H-[1,4]diazepino[1,7-a]indole]
- IC50 [1]: 1 to 10 nM

SMILES: CN1CCc2c(-c3ccccc3)c3ccccc3n2CC1 [Example 1, 2,3,4,5-Tetrahydro-3-methyl-11-phenyl-1H-[1,4]diazepino[1,7-a]indole]
- IC50 [1]: 1 to 10 nM
